Source: patent US8741897B2, “Glucocorticoid mimetics, methods of making them, pharmaceutical compositions and uses thereof” (Boehringer Ingelheim Pharmaceuticals Inc., priority 2003, dated 2014)

How the values were obtained:
[1] = biological target: T1, human glucocorticoid receptor (GR) complex (Homo sapiens, UniProt P04150); experiment: Glucocorticoid receptor competitive binding assay (fluorescence polarization, TAMRA-labeled dexamethasone probe); conditions: compounds of Formula (IA)
T1 construct: made in house; host or cells: insect expression system (baculovirus lysate)
T1 sequence (P04150 1-777): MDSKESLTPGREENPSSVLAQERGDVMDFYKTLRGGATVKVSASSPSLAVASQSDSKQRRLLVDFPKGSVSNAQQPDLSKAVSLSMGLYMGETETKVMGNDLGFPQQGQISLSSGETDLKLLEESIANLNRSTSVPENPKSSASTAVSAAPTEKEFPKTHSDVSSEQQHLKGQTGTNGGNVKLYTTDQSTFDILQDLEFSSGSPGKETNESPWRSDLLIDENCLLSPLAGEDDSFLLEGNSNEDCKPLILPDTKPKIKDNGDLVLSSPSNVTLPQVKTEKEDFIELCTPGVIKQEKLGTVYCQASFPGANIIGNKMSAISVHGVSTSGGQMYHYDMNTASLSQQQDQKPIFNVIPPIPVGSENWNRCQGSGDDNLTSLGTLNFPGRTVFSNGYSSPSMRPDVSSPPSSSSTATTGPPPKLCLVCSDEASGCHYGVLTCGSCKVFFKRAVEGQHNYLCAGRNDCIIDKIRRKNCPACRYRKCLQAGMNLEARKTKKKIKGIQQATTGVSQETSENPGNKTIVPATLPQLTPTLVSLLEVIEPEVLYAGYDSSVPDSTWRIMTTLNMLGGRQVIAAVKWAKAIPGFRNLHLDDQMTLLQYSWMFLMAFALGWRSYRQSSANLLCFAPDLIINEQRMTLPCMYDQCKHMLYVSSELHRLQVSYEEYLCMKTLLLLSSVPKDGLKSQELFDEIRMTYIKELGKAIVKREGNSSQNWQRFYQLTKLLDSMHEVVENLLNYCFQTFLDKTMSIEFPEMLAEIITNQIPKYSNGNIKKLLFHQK
In short: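 Fluorescence-polarization competition against 15 nM TAMRA-dexamethasone (stock added to the mix) for human GR complex from baculovirus lysate diluted 1:170. Buffer: 10 mM TES, 50 mM KCl, 20 mM Na2MoO4, 1.5 mM EDTA, 0.04% CHAPS, 10% glycerol, 1 mM DTT, pH 7.4. IC50 from 4-parameter logistic fit.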

[2] = tested on: glucocorticoid receptor function; experiment: one or more of the above assays (GR binding and glucocorticoid receptor cell assays: aromatase, IL-6, TAT, MMTV-Luc, IL-8, ICAM-Luc); format: cell-based; conditions: assay not specified per compound

Row | activity in the GR binding assay [1] | SMILES | activity as agonists of the glucocorticoid receptor function in one or more of the above assays [2]
1 | potent activity | Cc1cc(C#N)cc2[nH]c(CC(O)(CC(C)(C)c3cc(Br)cc4c3OCC4)C(F)(F)F)cc12 (centres unmarked) [2-[4-(5-Bromo-2,3-dihydrobenzofuran-7-yl)-2-hydroxy-4-methyl-2-trifluoromethylpentyl]-4-methyl-1H-indole-6-carbonitrile] | potent agonists
2 | potent activity | Cc1c(CC(O)(CC(C)(C)c2cc(Cl)cc3c2OCC3)C(F)(F)F)[nH]c2cnccc12 (centres unmarked) [4-(5-Chloro-2,3-dihydrobenzofuran-7-yl)-1,1,1-trifluoro-4-methyl-2-(3-methyl-1H-pyrrolo[2,3-c]pyridin-2-ylmethyl)pentan-2-ol] | potent agonists
3 | potent activity | Cc1ccc(F)c2[nH]c(CC(O)(CC(C)(C)c3ccc(F)cc3O)C(F)(F)F)cc12 (centres unmarked) [5-Fluoro-2-[4,4,4-trifluoro-3-(7-fluoro-4-methyl-1H-indol-2-ylmethyl)-3-hydroxy-1,1-dimethylbutyl]phenol] | potent agonists
4 | potent activity | COc1ccc(F)cc1C(C)(C)CC(O)(Cc1cc2cc(C(=O)N3CCC(O)C3)ccc2[nH]1)C(F)(F)F (centres unmarked) [{2-[4-(5-Fluoro-2-methoxyphenyl)-2-hydroxy-4-methyl-2-trifluoromethylpentyl]-1H-indol-5-yl}(3-hydroxypyrrolidin-1-yl)methanone] | potent agonists
5 | potent activity | COc1ccc(F)cc1C(C)(C)CC(O)(Cc1ccnc(C#N)c1)C(F)(F)F (centres unmarked) [4-[4-(5-Fluoro-2-methoxyphenyl)-2-hydroxy-4-methyl-2-trifluoromethylpentyl]pyridine-2-carbonitrile] | potent agonists

Continued, compound first:

Row | SMILES | activity in the GR binding assay [1] | activity as agonists of the glucocorticoid receptor function in one or more of the above assays [2]
6 | COc1ccc(F)cc1C(C)(C)CC(O)(Cc1cc2nnccc2[nH]1)C(F)(F)F (centres unmarked) [1,1,1-Trifluoro-4-(5-fluoro-2-methoxyphenyl)-4-methyl-2-(5H-pyrrolo[3,2-c]pyridazin-6-ylmethyl)pentan-2-ol] | potent activity | potent agonists
7 | CSc1cc2c(c(C(C)(C)CC(O)(Cc3[nH]c4ccccc4c3C#N)C(F)(F)F)c1)OCC2 (centres unmarked) [2-[2-Hydroxy-4-methyl-4-(5-methylsulfanyl-2,3-dihydrobenzofuran-7-yl)-2-trifluoromethylpentyl]-1H-indole-3-carbonitrile] | potent activity | potent agonists
8 | CC(C)(CC(O)(Cc1cc(Cl)nc(Cl)c1C#N)C(F)(F)F)c1cc(F)ccc1O (centres unmarked) [2,6-Dichloro-4-[4-(5-fluoro-2-hydroxyphenyl)-2-hydroxy-4-methyl-2-trifluoromethylpentyl]nicotinonitrile] | potent activity | potent agonists
9 | CC(C)(CC(O)(Cc1cc2cnccc2[nH]1)C(F)(F)F)c1cc(F)cc2c1OCC2 (centres unmarked) [1,1,1-Trifluoro-4-(5-fluoro-2,3-dihydrobenzofuran-7-yl)-4-methyl-2-(1H pyrrolo[3,2-c]pyridin-2-ylmethyl)pentan-2-ol] | potent activity | potent agonists
10 | Cc1cc(C)c(O)c(C(C)(C)CC(O)(Cc2[nH]c3ccccc3c2C#N)C(F)(F)F)c1 (centres unmarked) [2-[2-Hydroxy-4-(2-hydroxy-3,5-dimethylphenyl)-4-methyl-2-trifluoromethylpentyl]-1H-indole-3-carbonitrile] | potent activity | potent agonists
